Test results: patent publication US20250154686A1, “COMPOUND LIBRARY” (CHUGAI SEIYAKU KABUSHIKI KAISHA, priority 2021, published 2025)

Molecular target: T1, Bcl-2 protein (Recombinant Human Bcl-2 Protein) (Homo sapiens, UniProt P10415)
T1 construct: purchased Novus Biologicals NBP2-34889
Assay: AS-MS evaluation of binding of the Example 4 mixture library (1200 compounds/well) to Bcl-2, ASMS ratio (%)
Summary of the method: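 Recombinant human Bcl-2 at 20 μM final was exposed to a 1200-member compound pool (20 nM per compound) in pH 7.4 Tris-HCl buffer containing NaCl, Tween-20 and DTT. After 1 h at 23 °C, protein–ligand complexes passed SEC spin columns; LC/MS signals were compared with protein-free standard and blank samples to give ASMS ratio.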

[1] = replicate n = 1, mixture library, value belongs to the MS peak assigned to the compound
[2] = replicate n = 2, mixture library, value belongs to the MS peak assigned to the compound
[3] = AS-MS, Example 4 mixture library, Bcl-2, replicate n = 1
[4] = AS-MS, Example 4 mixture library, Bcl-2, replicate n = 2
[5] = AS-MS, mixture of 1200 compounds/well, Bcl-2 protein, replicate n = 1
[6] = AS-MS, mixture of 1200 compounds/well, Bcl-2 protein, replicate n = 2

T1 sequence (P10415 whole entry): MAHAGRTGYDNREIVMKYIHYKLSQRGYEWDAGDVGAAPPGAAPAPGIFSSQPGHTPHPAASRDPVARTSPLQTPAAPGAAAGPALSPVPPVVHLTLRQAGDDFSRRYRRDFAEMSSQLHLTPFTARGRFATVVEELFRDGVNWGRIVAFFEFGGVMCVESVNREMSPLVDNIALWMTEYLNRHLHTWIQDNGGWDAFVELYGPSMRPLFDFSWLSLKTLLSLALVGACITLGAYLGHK

| ASMS ratio (%) n = 1 [3] [%] | ASMS ratio (%) n = 2 [4] [%] | Molecule | also measured |
| --- | --- | --- | --- |
| 5.1 | 7.8 | CCOc1cncc(-c2cc(C(=O)N3CCN(c4ccc(C(=O)NS(=O)(=O)c5ccc(NCCSc6ccccc6)c(C(F)(F)F)c5)nn4)CC3)cc(C(F)(F)F)c2)c1 [Compound B2R018-01, 6-[4-[3-(5-Ethoxypyridin-3-yl)-5-(trifluoromethyl)benzoyl]piperazin-1-yl]-N-[4-(2-phenylsulfanylethylamino)-3-(trifluoromethyl)phenyl]sulfonylpyridazine-3-carboxamide] | – |
| 15.8 | 11.7 | CCOc1cncc(-c2ccc(CN3CCN(c4ccc(C(=O)NS(=O)(=O)c5ccc(NCCSc6ccccc6)c(C(F)(F)F)c5)nn4)CC3)cc2F)c1 [Compound B2R078-01, 6-[4-[[4-(5-Ethoxypyridin-3-yl)-3-fluorophenyl]methyl]piperazin-1-yl]-N-[4-(2-phenylsulfanylethylamino)-3-(trifluoromethyl)phenyl]sulfonylpyridazine-3-carboxamide] | – |
| 3.4 | −9.0 | CCOc1cccc(-c2cnn(-c3cc(C(=O)N4CCN(c5ccc(C(=O)NS(=O)(=O)c6ccc(NCCSc7ccccc7)c(C(F)(F)F)c6)cc5)CC4)cc(C(F)(F)F)c3)c2)c1 [Compound B2R043-01, 4-[4-[3-[4-(3-Ethoxyphenyl)pyrazol-1-yl]-5-(trifluoromethyl)benzoyl]piperazin-1-yl]-N-[4-(2-phenylsulfanylethylamino)-3-(trifluoromethyl)phenyl]sulfonylbenzamide] | – |
| 42.2 | 5.5 | CCOc1cccc(C#Cc2ccccc2CN2CCN(c3ccc(C(=O)NS(=O)(=O)c4ccc(NCCSc5ccccc5)c(C(F)(F)F)c4)nn3)CC2)c1 [Compound B2R095-01, 6-[4-[[2-[2-(3-Ethoxyphenyl)ethynyl]phenyl]methyl]piperazin-1-yl]-N-[4-(2-phenylsulfanylethylamino)-3-(trifluoromethyl)phenyl]sulfonylpyridazine-3-carboxamide] | – |
| 22.4 | 25. | CCOc1cncc(-c2ccc(CN3CCN(c4ccc(C(=O)NS(=O)(=O)c5ccc(NCCSc6ccccc6)c(C(F)(F)F)c5)nn4)CC3)cc2C)c1 [Compound B2R074-01, 6-[4-[[4-(5-ethoxypyridin-3-yl)-3-methylphenyl]methyl]piperazin-1-yl]-N-[4-(2-phenylsulfanylethylamino)-3-(trifluoromethyl)phenyl]sulfonylpyridazine-3-carboxamide] | – |
| 5.2 | 14.0 | CCOc1cccc(C#Cc2cc(C(=O)N3CCN(c4ccc(C(=O)NS(=O)(=O)c5ccc(NCCSc6ccccc6)c(C(F)(F)F)c5)nn4)CC3)cc(C(F)(F)F)c2)c1 [Compound B2R019-01, 6-[4-[3-[2-(3-Ethoxyphenyl)ethynyl]-5-(trifluoromethyl)benzoyl]piperazin-1-yl]-N-[4-(2-phenylsulfanylethylamino)-3-(trifluoromethyl)phenyl]sulfonylpyridazine-3-carboxamide] | – |
| 0.0 | 0.0 | CCOc1cncc(-c2cc(CN3CCN(c4ccc(C(=O)NS(=O)(=O)CCC(F)(F)F)nn4)CC3)cc(OC(C)C)c2)c1 [Compound B2N084-01] | – |
| −15.0 | 0.0 | CCOc1cccc(-c2ccc(CN3CCN(c4ccc(C(=O)NS(=O)(=O)c5ccc(NCCSc6ccccc6)c(C(F)(F)F)c5)cc4)CC3)c(OC)c2)c1 [Compound B2R053-01, 4-[4-[[4-(3-Ethoxyphenyl)-2-methoxyphenyl]methyl]piperazin-1-yl]-N-[4-(2-phenylsulfanylethylamino)-3-(trifluoromethyl)phenyl]sulfonylbenzamide] | – |

Continued, molecule first:

| Molecule | ASMS ratio (%) n = 1 [3] [%] | ASMS ratio (%) n = 2 [4] [%] | also measured |
| --- | --- | --- | --- |
| CCOc1cccc(-c2cc(C(=O)N3CCN(c4ccc(C(=O)NS(C)(=O)=O)cc4)CC3)cc(C(F)(F)F)c2)c1 [Compound B2I039-01, 4-[4-[3-(3-Ethoxyphenyl)-5-(trifluoromethyl)benzoyl]piperazin-1-yl]-N-methylsulfonylbenzamide] | – | – | ASMS ratio (%) n = 1 [1]: 0.0%; ASMS ratio (%) n = 2 [2]: 0.0% |
| CCOc1cncc(-c2ccccc2CCC(=O)N2CCN(c3ccc(C(=O)NS(=O)(=O)C(C)(C)C)nn3)CC2)c1 [Compound B2L012-01] | – | – | ASMS ratio (%) n = 1 [1]: 4.3%; ASMS ratio (%) n = 2 [2]: 7.3% |
| CCOc1cccc(-c2ccc(CN3CCN(c4ccc(C(=O)NS(=O)(=O)CCC(F)(F)F)nn4)CC3)cc2F)c1 [Compound B2N077-01, 6-[4-[[4-(3-Ethoxyphenyl)-3-fluorophenyl]methyl]piperazin-1-yl]-N-(3,3,3-trifluoropropylsulfonyl)pyridazine-3-carboxamide] | 0.0 | 0.0 | – |
| CCOc1cccc(-c2ccc(CN3CCN(c4ccc(C(=O)NS(C)(=O)=O)nn4)CC3)c(OC)c2)c1 [Compound B2I079-01, 6-[4-[[4-(3-Ethoxyphenyl)-2-methoxyphenyl]methyl]piperazin-1-yl]-N-methylsulfonylpyridazine-3-carboxamide] | – | – | ASMS ratio (%) n = 1 [1]: 0.0%; ASMS ratio (%) n = 2 [2]: 0.0% |
| CCCNC(=O)c1ccc(N2CCN(Cc3cc(-c4cccc(OCC)c4)cc(C(F)(F)F)c3)CC2)nn1 [Compound B1M087-01] | – | – | ASMS ratio (%) n = 1 [5]: 3.8%; ASMS ratio (%) n = 2 [6]: 3.2% |
| CCOc1cncc(-c2cc(CN3CCN(c4ccc(C(=O)NS(=O)(=O)C(C)(C)C)nn4)CC3)cc(C(F)(F)F)c2)c1 [Compound B2L088-01] | 0.0 | 2.8 | – |
| CCOc1cccc(-c2cc(CN3CCN(c4ccc(C(=O)NS(=O)(=O)CCC(F)(F)F)cc4)CC3)cc(OC(C)C)c2)c1 [Compound B2N057-01, 4-[4-[[3-(3-Ethoxyphenyl)-5-propan-2-yloxyphenyl]methyl]piperazin-1-yl]-N-(3,3,3-trifluoropropylsulfonyl)benzamide] | 0.0 | −1.8 | – |
| CCOc1cccc(-c2ccccc2CCC(=O)N2CCN(c3ccc(C(=O)NS(=O)(=O)CCC(F)(F)F)cc3)CC2)c1 [Compound B2N033-01, 4-[4-[3-[2-(3-Ethoxyphenyl)phenyl]propanoyl]piperazin-1-yl]-N-(3,3,3-trifluoropropylsulfonyl)benzamide] | 0.0 | 0.0 | – |
| CCOc1cccc(-c2csc(C(=O)N3CCN(c4ccc(C(=O)NS(=O)(=O)C(C)(C)C)cc4)CC3)c2)c1 [Compound B2L023-01, N-tert-Butylsulfonyl-4-[4-[4-(3-ethoxyphenyl)thiophene-2-carbonyl]piperazin-1-yl]benzamide] | – | – | ASMS ratio (%) n = 1 [1]: 0.0%; ASMS ratio (%) n = 2 [2]: 0.0% |
| CCOc1cncc(-c2cc(C(=O)N3CCN(c4ccc(C(=O)NCC56CC7CC(CC(C7)C5)C6)nn4)CC3)cc(C(C)(C)C)c2)c1 [Compound B1A016-01, N-(1-Adamantylmethyl)-6-[4-[3-tert-butyl-5-(5-ethoxypyridin-3-yl)benzoyl]piperazin-1-yl]pyridazine-3-carboxamide] | – | – | ASMS ratio (%) n = 2 (mixture library of 1200 compounds/well, Bcl-2 protein, replicate n = 2, compounds assigned by expected m/z): −4. % |
| CCOc1cncc(-c2ccc(CN3CCN(c4ccc(C(=O)NS(=O)(=O)CCC(F)(F)F)nn4)CC3)c(CC)c2)c1 [Compound B2N076-01, 6-[4-[[4-(5-Ethoxypyridin-3-yl)-2-ethylphenyl]methyl]piperazin-1-yl]-N-(3,3,3-trifluoropropylsulfonyl)pyridazine-3-carboxamide] | 0.0 | 0.0 | – |
| CCCNC(=O)c1ccc(N2CCN(C(=O)c3ccc(-c4cccc(OCC)c4)c(F)c3)CC2)cc1 [Compound B1M027-01] | – | – | ASMS ratio (%) n = 1 [5]: 1.0%; ASMS ratio (%) n = 2 [6]: 0.4% |
| CCOc1cncc(-c2ccc(CN3CCN(c4ccc(C(=O)NS(=O)(=O)C(C)(C)C)cc4)CC3)c(CC)c2)c1 [Compound B2L050-01, N-tert-Butylsulfonyl-4-[4-[[4-(5-ethoxypyridin-3-yl)-2-ethylphenyl]methyl]piperazin-1-yl]benzamide] | – | – | ASMS ratio (%) n = 1 [1]: 0.0%; ASMS ratio (%) n = 2 [2]: 0.0% |
| 6-[4-[[2-(5-Ethoxypyridin-3-yl)phenyl]methyl]piperazin-1-yl]-N-propylpyridazine-3-carboxamide [Compound B1M043-01] | – | – | ASMS ratio (%) n = 1 [5]: 2.2% |
| CCOc1cccc(-c2cc(OC)c(CN3CCN(c4ccc(C(=O)NS(=O)(=O)CCC(F)(F)F)cc4)CC3)c(OC)c2)c1 [Compound B2N059-01, 4-[4-[[4-(3-Ethoxyphenyl)-2,6-dimethoxyphenyl]methyl]piperazin-1-yl]-N-(3,3,3-trifluoropropylsulfonyl)benzamide] | 0.0 | 0.0 | – |
| 4-[4-[[4-(3-Ethoxyphenyl)-3-methylphenyl]methyl]piperazin-1-yl]-N-propylbenzamide [Compound B1M058-01] | – | – | ASMS ratio (%) n = 1 [5]: −1.4% |
| CCOc1cncc(-c2cc(CN3CCN(c4ccc(C(=O)NS(=O)(=O)C(C)(C)C)cc4)CC3)cc(OC(C)C)c2)c1 [Compound B2L058-01] | – | – | ASMS ratio (%) n = 1 [1]: 0.0%; ASMS ratio (%) n = 2 [2]: 0.0% |
| CCCNC(=O)c1ccc(N2CCN(C(=O)c3cncc(C#Cc4cccc(OCC)c4)c3)CC2)nn1 [Compound B1M009-01] | – | – | ASMS ratio (%) n = 2 [6]: 0.0% |
| CCOc1cncc(-c2cc(C(=O)N3CCN(c4ccc(C(=O)NS(=O)(=O)C(C)(C)C)cc4)CC3)cc(C(C)(C)C)c2)c1 [Compound B2L038-01, 4-[4-[3-tert-Butyl-5-(5-ethoxypyridin-3-yl)benzoyl]piperazin-1-yl]-N-tert-butylsulfonylbenzamide] | – | – | ASMS ratio (%) n = 1 [1]: 0.0%; ASMS ratio (%) n = 2 [2]: 0.0% |
